Measured values from patent US10334849B2, “Salts of carboxylic acid herbicides” (Monsanto Technology LLC, priority 2011, dated 2019).
Like-named read-outs stand apart in the source and are kept apart here.

What was measured:
[1] = tested on: velvetleaf (ABUTH); conditions: 21 days after treatment
Procedure: In this example, the herbicidal effectiveness of selected dicamba salts prepared in accordance with Example 1 was evaluated in greenhouse testing. The herbicidal effectiveness data set forth herein report “Weed killing efficacy” as a percentage following a standard procedure in the art which reflects a visual assessment of plant mortality and growth reduction by comparison with untreated plants, made by technicians specially trained to make and record such observations. Such measurements are relied upon and regularly reported by Monsanto Company in the course of its herbicide business.
The following procedure was used for testing compositions of this example to determine herbicidal effectiveness.
Seeds of velvetleaf (ABUTH) were planted in 85 mm square pots in a soil mix which was previously steam sterilized and prefertilized with a 14-14-14 NPK slow release fertilizer at a rate of 3.6 kg/m^3. The pots were placed in a greenhouse with sub-irrigation. About one week after emergence, seedlings were thinned as needed, including removal of any unhealthy or abnormal plants, to create a uniform series of test pots.
The plants were maintained for the duration of the test in the greenhouse where they received a minimum of 14 hours of light per day. If natural light was insufficient to achieve the daily requirement, artificial light with an intensity of approximately 475 microeinsteins was used to make up the difference. Exposure temperatures were not precisely controlled but averaged about 27° C. during the day and about 21° C. during the night. Plants were sub-irrigated throughout the test to ensure adequate soil moisture levels.
Application of herbicide salt solutions were made by spraying with a track sprayer fitted with a 9501E nozzle calibrated to deliver a spray volume of approximately 38 liters per hectare (l/ha). After treatment, pots were returned to the greenhouse until ready for evaluation.
For evaluation of herbicidal effectiveness, all plants in the test were examined by a single practiced technician, who recorded percent control, a visual measurement of the effectiveness of each treatment by comparison with untreated plants. […] Control of 85% or more is in most cases considered acceptable for normal herbicide use. […] The weed killing efficacy was evaluated 21 days after the treatment.

[2] = Tube test: dicamba volatilized from spray solution into air; type: physicochemical; conditions: air about 35° C., about 40% RH, 24 hours
Procedure: Volatility reduction may be quantified experimentally by methods known in the art. In one method the volatility of solutions containing a herbicide salt can be measured in the gas phase (air) via tube tests. In a tube test, a sample of the herbicide solution is placed in a test tube that has been modified to allow air flow through the tube. A selective collection medium is attached to the outlet of the tube to collect volatilized herbicide. The collection medium is then analyzed for the respective herbicide. For further details see the Tube Test Protocol described in Example 2.
(§1) In this example, various salts of dicamba prepared in Example 1 were selected for volatility testing. As described below, spray solutions containing the selected dicamba salts were prepared and subjected to volatility testing via the tube test and/or humidome protocols. Typically, the spray solutions containing the selected dicamba salts also contained potassium glyphosate co-herbicide. Aqueous test spray solutions containing selected salts of dicamba and potassium glyphosate were prepared by mixing a solution of dicamba salt with a solution of potassium glyphosate salt and adjusting the relative proportion and/or diluting with water to arrive at the desired concentration of dicamba and glyphosate.
To measure the dicamba concentration in the gas phase (air) volatilized from the spray solutions, 10 mL samples of each solution were placed into a 50 mL plastic centrifuge tube with one hole approximately ⅛ in (3.2 mm) diameter drilled into the tube at the mark between 20 mL and 30 mL lines. A 22 mm×30 mm polyurethane foam (PUF), cut from a 76 mm length, available from SKC Inc., catalog #P22692, was placed into a glass tube of approximately 20 mm diameter with parafilm wrapped around the outside to obtain a snug fit into the top of the centrifuge tube. A hose was connected to the other end of the glass tube leading to a vacuum line. The air flow was regulated to approximately 2 L/min using a flow controller. Air was pulled through the tube at approximately 2 L/min for 24 hours. Note that the air conditions of flow rate, temperature, pressure and composition (e.g., relative humidity) are not narrowly critical as long as the various samples are analyzed under similar conditions. For instance, air at from about 5° C. to about 40° C., from about 0.5 to about 1.5 bar pressure, from about 0% to about 95% relative humidity, and at a flow rate of from about 0.1 to 10 L/min-mL sample could be suitably used for volatility analysis. In this test, the air pulled through the tubes was at about 35° C. and about 40% relative humidity. The PUF was removed from the glass tube, extracted with 20 mL methanol and the resulting solution analyzed for dicamba concentration using liquid chromatography-mass spectroscopy (LC-MS) methods known in the art.
For comparison, samples of spray solutions containing 2 wt. % a.e. of the diglycolamine salt of dicamba (i.e., CLARITY) were also subjected to the tube test protocol.
(§2) The reduction in volatility is calculated relative to the volatility of the samples containing the diglycolamine salt of dicamba.

[3] = Humidome test: dicamba volatilized into air from spray solution applied to soil; type: physicochemical; conditions: sprayed on soil at 10 GPA, 24 hours, vs CLARITY without glyphosate
Text: In another method, the volatility of solutions containing a herbicide salt can be evaluated by measuring herbicide concentrations in the gas phase (air) through air sampling in humidome plant growth chambers, which are maintained at constant temperature and humidity. For further details see the Humidome Protocol described in Example 2.
as §1
Humidomes were obtained from Hummert International (Part Nos 14-3850-2 for humidomes and 11-3050-1 for 1020 flat tray) and modified by cutting a 2.2 cm diameter hole on one end approximately 5 cm from the top to allow for insertion of a glass air sampling tube (22 mm OD) containing a polyurethane foam (PUF) filter. The sampling tube was secured with a VITON o-ring on each side of the humidome wall. The air sampling tube external to the humidome was fitted with tubing that was connected to a vacuum manifold immediately prior to sampling.
The flat tray beneath the humidome was filled with 1 liter of sifted dry or wet 50/50 soil (50% Redi-Earth and 50% US 10 Field Soil) to a depth of about 1 cm. To measure the dicamba concentration in the gas phase (air) volatilized from the spray solutions, samples of the spray solutions were sprayed over the soil in the humidome using a track sprayer at a rate of 10 gallons per acre (GPA). To avoid contamination of the sides of the flat tray, each tray was nested in an empty tray prior to spraying.
The flat tray bottom containing the dicamba formulation on soil was covered with a humidome lid and the lid was secured with clamps. The assembled humidomes were placed in a temperature and humidity controlled environment and connected to a vacuum manifold through the air sampling line. Air was drawn through the humidome and PUF at a rate of 2 liters per minutes (LPM) for 24 hours at which point the air sampling was stopped. The humidomes were then removed from the controlled environment and the PUF filter was removed. The PUF filter was extracted with 20 mL of methanol and the solution was analyzed for dicamba concentration using LC-MS methods known in the art.
For comparison, samples of spray solutions containing the diglycolamine salt of dicamba (i.e., CLARITY) at approximately the same weight percent a.e. as the tested dicamba salt sprays were subjected to the humidome tests.
as §2

[4] = dicamba salt 2 wt. % a.e., potassium glyphosate 6 wt. % a.e., vs 2 wt. % a.e. CLARITY without glyphosate
[5] = dicamba salt 0.6 wt. % a.e., potassium glyphosate 0.9 wt. % a.e.
[6] = dicamba salt 0.6 wt. % a.e., potassium glyphosate 1.2 wt. % a.e.

SMILES	Volatility Reduction Over DGA Dicamba Spray (%) Tube Test [2, 4] [%]	Volatility Reduction Over DGA Dicamba Spray (%) Humidome Test [3, 5] [%]	further results
CCc1ncc[nH]1.COc1c(Cl)ccc(Cl)c1C(=O)O [2-ethyl imidazolium dicamba]			Weed killing efficacy (%) ([1]; application rate 140 g a.e./ha): 38.3%; Weed killing efficacy (%) ([1]; application rate 280 g a.e./ha): 67.5%; Weed killing efficacy (%) ([1]; application rate 560 g a.e./ha): 80.8%
CCc1nc(C)c[nH]1.COc1c(Cl)ccc(Cl)c1C(=O)O [2-ethyl-4-methyl imidazolium dicamba]			Weed killing efficacy (%) ([1]; application rate 140 g a.e./ha): 30.0%; Weed killing efficacy (%) ([1]; application rate 280 g a.e./ha): 62.5%; Weed killing efficacy (%) ([1]; application rate 560 g a.e./ha): 83.3%
COc1c(Cl)ccc(Cl)c1C(=O)O.Cc1ncc[nH]1 [2-methyl imidazolium dicamba]			Weed killing efficacy (%) ([1]; application rate 140 g a.e./ha): 40.0%; Weed killing efficacy (%) ([1]; application rate 280 g a.e./ha): 66.7%; Weed killing efficacy (%) ([1]; application rate 560 g a.e./ha): 85.0%
C1CCC(N2CCNCC2)CC1.COc1c(Cl)ccc(Cl)c1C(=O)O [Salt 3]	75		
COc1c(Cl)ccc(Cl)c1C(=O)O.OCCN1CCNCC1 [Salt 4]	69		
CCCCN1CCNCC1.COc1c(Cl)ccc(Cl)c1C(=O)O [Salt 5]	70		
CCN1CCNCC1.COc1c(Cl)ccc(Cl)c1C(=O)O [Salt 6]	83		
CC(C)c1ncc[nH]1.COc1c(Cl)ccc(Cl)c1C(=O)O [Salt 9]	65	63	Volatility Reduction Over DGA Dicamba Spray (%) Humidome Test [3, 6]: 67%
CCc1nc(C)c[nH]1.COc1c(Cl)ccc(Cl)c1C(=O)O [Salt 10]	72	86	Volatility Reduction Over DGA Dicamba Spray (%) Humidome Test [3, 6]: 85%; Volatility Reduction Over DGA Dicamba Spray (%) Humidome Test ([3]; dicamba salt 2.4 wt. % a.e., potassium glyphosate 4.8 wt. % a.e.): 86%; Volatility Reduction Over DGA Dicamba Spray (%) Tube Test ([2]; dicamba salt 10 wt. % a.e., no potassium glyphosate, vs 2 wt. % a.e. CLARITY): 88%
CCc1ncc[nH]1.COc1c(Cl)ccc(Cl)c1C(=O)O [Salt 11]	67	67	Volatility Reduction Over DGA Dicamba Spray (%) Humidome Test [3, 6]: 60%
COc1c(Cl)ccc(Cl)c1C(=O)O.Cc1ncc[nH]1 [Salt 12]		46	Volatility Reduction Over DGA Dicamba Spray (%) Humidome Test [3, 6]: 50%
COc1c(Cl)ccc(Cl)c1C(=O)O.Cc1c[nH]c(-c2ccccc2)n1 [Salt 14]		92	
CCCN1CCC(=O)CC1.COc1c(Cl)ccc(Cl)c1C(=O)O [Salt 16]	20		
CC(C)CN1CCC(=O)CC1.COc1c(Cl)ccc(Cl)c1C(=O)O [Salt 17]	57		
C1CCN(C2CCNCC2)CC1.COc1c(Cl)ccc(Cl)c1C(=O)O.COc1c(Cl)ccc(Cl)c1C(=O)O [Salt 19]	23		
C(CC1CCNCC1)CC1CCNCC1.COc1c(Cl)ccc(Cl)c1C(=O)O.COc1c(Cl)ccc(Cl)c1C(=O)O [Salt 22]	60	68	
CN1CCN(C)CC1.COc1c(Cl)ccc(Cl)c1C(=O)O [Salt 23]	23		
COc1c(Cl)ccc(Cl)c1C(=O)O.OCCN1CCN(CCO)CC1 [Salt 24]	57	76	
